Measured values from US20230233671A1, “RNA MOLECULES” (Pfizer Inc., priority 2021, published 2023).

Tests used:
[1] = tested on: VZV gE; experiment: Serum VZV gE-binding IgG levels (LUMINEX) in LAV-experienced C57BL/6 mice; assay type: in vivo; conditions: for Day 35 (GMC), serum gE-binding IgG: C57BL/6 mice, LAV SQ Day 0, Day 35 prior to immunization; for Day 63 (GMC), serum gE-binding IgG / Day 76 (GMC), serum gE-binding IgG: LAV-experienced C57BL/6 mice; for Day 63 (GMC), serum gE-binding IgG: Day 63 (1 month post dose 1); for Day 76 (GMC), serum gE-binding IgG: Day 76 (13 days post dose 2/boost)
Procedure: Serum IgG levels were determined for each mouse sample using the LUMINEX® platform. Briefly, diluted sera were incubated in the dark in the presence of blocked, recombinant gE protein-bound single-plex microspheres (MAGPLEX® Microspheres, region 79) for 20±4 hours at 2-8° C., 300 rpm. A secondary antibody solution (R-phycoerythrin Conjugated AffiniPure F(ab)′2 Fragment Goat Anti-Mouse IgG F(ab)′2 Fragment Specific) was prepared at 1:250 in LXA-16 buffer. Plates were washed three times in LXA-20 (EIA-7), and secondary antibody was applied to each well of the assay plate. Plates were covered with aluminum sealers and incubated for 2 hours±15 minutes at 25° C., 300 rpm. Plates were washed three times with LXA-20 (EIA-7) buffer, and 100 ul LXA-20 was applied to each well. Plates were covered with aluminum sealers and incubated at 25° C., 300 rpm for a minimum of 4 minutes, or up to 2 hours. Plates were analyzed on a BIO-PLEX® Reader. IgG titers for Day, 28, 34 and 42 are show in Table 10 and FIGS. 17-19.
VZV RNA-LNP vaccines were tested for their ability to induce IgG and T cell responses in C57BL/6 mice. 15 mice per group were immunized in accordance with the schedule and specification in Table 11. Briefly, 10 or 15 mice per group were primed subcutaneously (SQ) on Day 0 with a live-attenuated varicella (LAV) vaccine (VARIVAX®, Merck) using a full human dose per mouse (1350 pfu), immunized intramuscularly (IM) on Day 35 day and boosted on Day 63. The “infection” with a LAV vaccine mimics exposure to VZV that humans receive when infected with VZV as children and develop chickenpox.
Mice immunized with SHINGRIX® received 1, 2.5, or 5 μg, corresponding to 1/50, 1/20, and 1/10 of the human clinical dose, respectively; mice immunized with gE_WT CO2 received 0.5 or 1 μg VZV RNA-LNP; mice immunized with ms5 CO1 received 0.5 or 1 ug VZV RNA-LNP; mice immunized with ms6 CO2 received 0.5 or 1 ug VZV RNA-LNP; and mice immunized with lyophilized gE_WT CO2 received 0.5 or 1 ug VZV RNA-LNP. Saline was administered on Day 35 and 63 to a negative control group. Sera was collected from mice on Day 35, 63 and 76 for characterization of VZV gE-binding IgG levels (LUMINEX® analyses). Spleens were harvested on Day 48 (13 days post dose 1 for selected groups) and Day 76 for cellular analysis (T cell and B cell responses).
Serum IgG levels were determined for each mouse sample using the LUMINEX® platform (described herein). IgG titers for Day 35, 63 (1 month post dose 1) and 76 (13 days pose dose 2) are show in Table 12 and FIGS. 22-24. Each data point in the figures is a result from an individual animal; each horizontal lines represents the geometric mean IgG concentration (μg/ml) and whiskers represent the 95% confidence interval.

[2] = tested on: human embryonic kidney (HEK) 293T cells; experiment: In vitro expression (IVE) of VZV RNA-LNP vaccines in HEK 293T cells (FACS); assay type: cell-based; conditions: for VZV RNA-LNPs (293T cells) MFI: Table 8; for VZV RNA-LNPs (293T cells) EC50 (ng/well): Table 8, FIG. 15, input RNA vs percentage of gE-expressing cells, 24 hours
Procedure: In vitro expression (IVE) analyses were conducted to assess the potency of VZV RNA-LNP vaccines. RNA constructs were formulated into LNPs as previously described in Example 3, and a range of input VZV RNA-LNP quantities was transfected into human embryonic kidney (HEK) 293T cells for 24 hours at 37° C., 5% CO2. Transfected cells were washed with DPBS, detached from plate wells using ACCUTASE®, and rinsed with cold PBS. Cells were subjected to live/dead staining, fixation, and permeabilization prior to FACS staining. Fixed and permeabilized cells were incubated with an anti-gE primary antibody (1:1000) for 45 minutes at 2-8° C., washed twice with BD PERM/WASH™ buffer and incubated with a goat anti-human kappa-PE secondary antibody (1:1000) for 30 minutes at 2-8° C. Cells were washed twice with BD PERM/WASH™ buffer, resuspended in 1×FACS buffer, and analyzed on a BD LSRII to determine the proportion of cells expressing VZV gE for each VZV RNA-LNP input. A titration curve was created whereby input RNA quantities were plotted against the percentage of gE-expressing cells to determine the EC50 of each VZV RNA-LNP vaccine.

| Substance | Day 35 (GMC), serum gE-binding IgG ([1]; 0.5 μg group) [µg/mL] | Day 35 (GMC), serum gE-binding IgG ([1]; 1 μg group) [µg/mL] | Day 63 (GMC), serum gE-binding IgG ([1]; 0.5 μg IM Day 35) [µg/mL] | Day 76 (GMC), serum gE-binding IgG ([1]; 0.5 μg IM Days 35 and 63) [µg/mL] | Day 63 (GMC), serum gE-binding IgG ([1]; 1 μg IM Day 35) [µg/mL] | Day 76 (GMC), serum gE-binding IgG ([1]; 1 μg IM Days 35 and 63) [µg/mL] | VZV RNA-LNPs (293T cells) MFI [2] | VZV RNA-LNPs (293T cells) EC50 (ng/well) [2] [ng/well] |
| --- | --- | --- | --- | --- | --- | --- | --- | --- |
| ms5 CO1: modRNA construct, ORF SEQ ID NO: 153, VZV gE with deletion of aa 582-623 | 0.11 | 0.14 | 41 | 556 | 76 | 530 | 543 | 14 |
| ms6 CO2: modRNA construct, ORF SEQ ID NO: 157, VZV gE with deletion of aa 539-623, secreted | 0.28 | 0.19 | 50 | 464 | 58 | 723 | 162 | 220 |
